Laboratory results published in patent publication US20220267268A1, “NEW TRICYCLIC 5-HT2 ANTAGONISTS” (Anamar AB, priority 2019, published 2022).
Marks after values point to notes of the source that are not given here.

Key:
[1] = biological target: T1, 5-HT2B receptor (Homo sapiens, UniProt P41595); assay: 5-HT2B receptor binding, ligand displacement assay with 3H-LSD radioligand; conditions: human receptor in CHO-K1
T1 construct: host or cells: CHO-K1
Description: 5-HT2B receptor binding (performed at Eurofins Panlabs Taiwan, Ltd.) to human receptor protein expressed in CHO-K1 cells was determined in a ligand displacement assay using ^3H-lysergic acid diethylamide (LSD) as radioligand and ketanserine as a standard reference compound, or alternatively*, with ^3H-mesulergine and SB 206553 as reference. Data is presented as % displacement of radioligand at indicated compound concentrations, see Table 1.

[2] = biological target: T1, 5-HT2B receptor; assay: 5-HT2B receptor antagonism, inhibition of 5-HT stimulated IP-1 accumulation (HTRF) in CHO-K1 cells; assay type: cell-based; conditions: 5-HT (5 nM) stimulated IP-1 accumulation
Description: (§1) 5-HT2B receptor antagonism (performed at Eurofins Panlabs Taiwan, Ltd.) was determined in CHO-K1 cells expressing human receptor protein as inhibition of 5-HT (5 nM) stimulated IP-1 accumulation measured by HTRF quantitation. SB 206553 was used as a standard reference compound. The antagonistic response is expressed as % inhibition of the 5-HT induced effect, see Table 2.

[3] = biological target: T1, 5-HT2B receptor; assay: 5-HT2B receptor agonism, IP-1 accumulation in CHO-K1 cells without prior 5-HT stimulation; assay type: cell-based; conditions: % of IP-1 accumulation induced by 5-HT (1 uM)
Description: as §1
5-HT2B receptor agonism (performed at Eurofins Panlabs Taiwan, Ltd.) was determined in the same model as described above in Example 50 without prior stimulation with 5-HT. The agonistic response is expressed as % of the IP-1 accumulation induced by 5-HT (1 uM) stimulation, see Table 3.

[4] = test system: bleomycin-induced dermal fibrosis; assay: Anti-fibrotic effects in bleomycin-induced dermal fibrosis in mice; assay type: in vivo, female DBA/2 mice
Description: Skin fibrosis was induced in female DBA/2 mice by subcutaneous injections of bleomycin (2.5 mg/kg) every other day for three or six weeks.
For preventive treatment, mice were challenged with bleomycin for three weeks and treatment by oral gavage was established simultaneously. For therapeutic treatment, fibrosis was first induced by injections of bleomycin for three weeks in the absence of treatment. Thereafter, treatment by oral gavage was initiated, while injections of bleomycin were continued. The outcome was analyzed three or six weeks after the first injection of bleomycin for preventive and therapeutic treatment, respectively. Mice injected with 0.9% NaCl, the vehicle of bleomycin, served as non-fibrotic controls and mice treated with ddH2O (the vehicle for test compound) by oral gavage served as negative controls.
Groups 1-8 of n=8 Female DBA/2 Mice: Preventive dosing 3 weeks in total 1. 0.9% NaCl (injection) and ddH2O (orally) week 1-3. 2. Bleomycin (injection) and ddH2O (orally) week 1-3. 3. Bleomycin (injection) and test compound (10 mg/kg, qd, orally) week 1-3. Therapeutic dosing 6 weeks in total 4. 0.9% NaCl (injection) week 1-6 and ddH2O (orally) week 4-6. 5. Bleomycin (injection) week 1-3, 0.9% NaCl (injection) week 4-6, and ddH2O (orally) week 4-6. 6. Bleomycin (injection) week 1-6 and ddH2O (orally) week 4-6. 7. Bleomycin (injection) week 1-6 and test compound (1 mg/kg, qd, orally) week 4-6. 8. Bleomycin (injection) week 1-6 and test compound (10 mg/kg, qd, orally) week 4-6.
Defined areas of the skin of the upper back were excised, subsequently fixed in 4% formalin for 6 h and embedded in paraffin. Skin sections were cut and stained with hematoxylin/eosin. The dermal thickness (measured as distance between the epidermal-dermal border to the dermal-subcutaneous border in arbitrary units) was quantified in 4 different sections from different sites with 2 measurements per section. The analysis was performed in a blinded manner.
Myofibroblasts are characterized by the expression of α-smooth muscle actin (αSMA). Fibroblasts positive for αSMA were detected in paraffin-embedded slides from the upper back by incubation with monoclonal anti-αSMA antibodies (clone 1A4, Sigma-Aldrich, Steinheim, Germany). The expression was visualized with horseradish peroxidase labeled secondary antibodies and 3,3-diaminobenzidine tetrahydrochloride (DAB) (Sigma-Aldrich). Monoclonal mouse IgG antibodies (Calbiochem, San Diego, Calif., USA) were used for controls. The analysis was performed by a blinded reviewer evaluating the myofibroblasts in four sections per sample.
The amount of collagen protein (ug/mL) in skin samples was determined via hydroxyproline assay. After digestion of full skin thickness punch biopsies (Ø 3 mm) derived from the upper back in 6 M HCl for three hours at 120° C., the pH of the samples was adjusted to 6 with 6 M NaOH. Afterwards, 0.06 M chloramine T was added to each sample and incubated for 20 m at room temperature. Next, 3.15 M perchloric acid and 20% p-dimethylaminobenzaldehyde were added and samples were incubated for additional 20 min at 60° C. The absorbance was determined at 557 nm with a Spectra MAX 190 microplate spectrophotometer using a standard curve generated with purified type I collagen (Sigma-Aldrich).
All data are presented as group mean values (±SEM), and differences between the groups were tested for their statistical significance by Mann-Whitney U non-parametric test for non-related samples. P-values less than 0.05 were considered significant.

[5] = Preventive dosing, Group 3: 10 mg/kg qd orally week 1-3, mean (SEM), p < 0.001 vs group 2
[6] = Therapeutic dosing, Group 7: 1 mg/kg qd orally week 4-6, mean (SEM)
[7] = Therapeutic dosing, Group 8: 10 mg/kg qd orally week 4-6, mean (SEM)
[8] = preventive and therapeutic treatment, compared to vehicle-treated, bleomycin-challenged mice

T1 sequence (P41595 whole entry): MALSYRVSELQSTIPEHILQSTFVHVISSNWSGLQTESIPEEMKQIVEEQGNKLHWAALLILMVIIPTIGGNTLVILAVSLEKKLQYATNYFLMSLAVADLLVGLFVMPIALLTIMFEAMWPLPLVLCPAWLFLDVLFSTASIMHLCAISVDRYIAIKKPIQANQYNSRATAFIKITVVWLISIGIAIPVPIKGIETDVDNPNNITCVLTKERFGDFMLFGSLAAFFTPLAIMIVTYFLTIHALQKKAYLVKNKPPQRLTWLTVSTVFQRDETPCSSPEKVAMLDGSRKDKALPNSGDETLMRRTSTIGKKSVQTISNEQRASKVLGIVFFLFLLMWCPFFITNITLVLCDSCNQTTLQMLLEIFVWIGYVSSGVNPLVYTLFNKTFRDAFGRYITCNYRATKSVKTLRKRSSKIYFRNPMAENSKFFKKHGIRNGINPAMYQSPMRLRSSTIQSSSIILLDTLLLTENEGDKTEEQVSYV

Question: For `CC1CN(C(=N)N)c2ccc3ccccc3c21.Cl` (stereo not drawn) [Example 3, 1-Methyl-1,2-dihydro-3H-benzo[e]indole-3-carboximidamide hydrochloride], which inhibition at 0.01 µM ([1]; 10 nM compound) is on record?
Answer: The inhibition at 0.01 µM was 63%.

Question: And the inhibition at 0.1 µM ([1]; 100 nM compound)?
Answer: Its inhibition at 0.1 µM is 90%.

Question: And the inhibition at 0.001 µM ([2]; 1 nM compound)?
Answer: The inhibition at 0.001 µM was 2%.

Question: And the inhibition at 0.01 µM ([2]; 10 nM compound)?
Answer: Its inhibition at 0.01 µM is 50%.

Question: What about the inhibition at 0.1 µM ([2]; 100 nM compound) of the same compound?
Answer: The inhibition at 0.1 µM was 100%.

Question: What about the “5-HT2B receptor agonism (% of positive control) 1 nM” value ([3]; 1 nM compound) of the same compound?
Answer: The value was −3%.

Question: What about the “5-HT2B receptor agonism (% of positive control) 10 nM” value ([3]; 10 nM compound) of the same compound?
Answer: The value was 0%.

Question: What about the “5-HT2B receptor agonism (% of positive control) 100 nM” value ([3]; 100 nM compound) of the same compound?
Answer: Its value is −3%.

Question: And the “Dermal thickness (arbitrary units)” value [4, 5]?
Answer: The value was 3.52 (0.05) *** arbitrary units.

Question: And the “Hydroxyproline (ug/mL)” value [4, 5]?
Answer: The value was 3.44 (0.11) *** ug/mL.

Question: What about the Myofibroblast counts [4, 5] of the same compound?
Answer: The Myofibroblast counts was 1.31 (0.06) ***.

Question: And the “Dermal thickness (arbitrary units)” value [4, 6]?
Answer: The value was 3.96 (0.06) ^++### arbitrary units.

Question: And the “Hydroxyproline (ug/mL)” value [4, 6]?
Answer: Its value is 3.85 (0.12) ^## ug/mL.

Question: What about the Myofibroblast counts [4, 6] of the same compound?
Answer: Its Myofibroblast counts is 1.72 (0.07) ^+###.

Question: And the “Dermal thickness (arbitrary units)” value [4, 7]?
Answer: The value was 3.56 (0.04) ^+++### arbitrary units.

Question: And the “Hydroxyproline (ug/mL)” value [4, 7]?
Answer: Its value is 3.58 (0.09) ^++### ug/mL.

Question: What about the Myofibroblast counts [4, 7] of the same compound?
Answer: Its Myofibroblast counts is 1.41 (0.07) ^++###.

Question: And the Myofibroblast counts [4, 8]?
Answer: The Myofibroblast counts was “significantly reduced”.

Question: And the hydroxyproline content [4, 8]?
Answer: Its hydroxyproline content is “significantly reduced”.

Question: What about the hypodermal thickening [4, 8] of the same compound?
Answer: Its hypodermal thickening is “significantly reduced”.

Question: What about the “antifibrotic effect, 10 mg/kg/qd compared to 1 mg/kg/qd” value ([4]; therapeutic regimen) of the same compound?
Answer: Its value is “more potent antifibrotic effect”.
